{"source": "paper PMC5059489", "about": "“Mechanistic evaluation and transcriptional signature of a glutathione S-transferase omega 1 inhibitor” (Nature Communications, 2016)", "key": {"HCT116 xenografts": {"tested_on": "HCT116 xenografts", "assay": "HCT116 xenograft efficacy study"}, "HCT116 cells [1]": {"tested_on": "HCT116 cells", "assay": "Clonogenic survival assay", "type": "cell-based, human", "experimental": "HCT116 cells were seeded at a density of 200 cells per well in a 6-well microtitre plate. After overnight attachment, cells were treated with different concentrations of GSTO1 inhibitors for 24 h. Colonies were allowed to grow in drug-free medium for 7 days and stained with 0.5% crystal violet. For drug combination studies, HCT116 cells (200 per well) were plated in a 12-well plate. C1-27, cisplatin (1 μM, dissolved in 0.9% NaCl), PD98059 (10 μM), LY294002 (10 μM), SP600125 (1 μM) or desferoxamine mesylate (10 μM) were added alone or in combination and colonies were allowed to grow for 7–10 days."}, "A549": {"tested_on": "A549", "assay": "MTT cytotoxicity GI50, A549", "type": "cell-based", "conditions": "Homo sapiens", "experimental": "(§1) Cell proliferation was assessed by a MTT assay. Cancer cells were seeded in 96-well microtitre plates and, after overnight attachment, treated with GSTO1 inhibitors. After 72 h, MTT solution (3 mg ml^−1; 20 μl) was added to each well and cells were incubated for 3 h at 37 °C. After incubation, media from each well was removed and the dark blue formazan crystals formed by live cells were dissolved in DMSO (150 μl per well). The absorbance intensity was measured at 570 nm on a microplate reader (Molecular Devices, Sunnyvale, CA, USA). Cell viability after 24 h treatment was assessed using ApoTox-Glo triplex assay (Promega) according to the manufacturer's protocol. At least three independent dose–response experiments with each concentration tested in triplicate were performed for each cell line."}, "HCT116": {"tested_on": "HCT116", "assay": "MTT cytotoxicity GI50, HCT116", "type": "cell-based, human", "conditions": "Homo sapiens, HCT-116", "experimental": "as §1"}, "PDI [2]": {"biological_target": "T1, PDI (Homo sapiens, UniProt P07237)", "assay": "PDI activity assay (PDI-catalysed reduction of insulin)", "type": "biochemical", "design": "made in house", "conditions": "inhibition of PDI-catalyzed reduction of insulin"}, "BxPC3": {"tested_on": "BxPC3", "assay": "MTT cytotoxicity GI50, BxPC3", "type": "cell-based", "conditions": "Homo sapiens, BXPC-3", "experimental": "as §1"}, "Keap1": {"biological_target": "T2, Keap1 (Homo sapiens, UniProt Q14145)", "T2 construct": "endogenous in cells; host or cells: HCT116 p53+/+ cell lysate", "T2 sequence (Q14145 whole entry)": "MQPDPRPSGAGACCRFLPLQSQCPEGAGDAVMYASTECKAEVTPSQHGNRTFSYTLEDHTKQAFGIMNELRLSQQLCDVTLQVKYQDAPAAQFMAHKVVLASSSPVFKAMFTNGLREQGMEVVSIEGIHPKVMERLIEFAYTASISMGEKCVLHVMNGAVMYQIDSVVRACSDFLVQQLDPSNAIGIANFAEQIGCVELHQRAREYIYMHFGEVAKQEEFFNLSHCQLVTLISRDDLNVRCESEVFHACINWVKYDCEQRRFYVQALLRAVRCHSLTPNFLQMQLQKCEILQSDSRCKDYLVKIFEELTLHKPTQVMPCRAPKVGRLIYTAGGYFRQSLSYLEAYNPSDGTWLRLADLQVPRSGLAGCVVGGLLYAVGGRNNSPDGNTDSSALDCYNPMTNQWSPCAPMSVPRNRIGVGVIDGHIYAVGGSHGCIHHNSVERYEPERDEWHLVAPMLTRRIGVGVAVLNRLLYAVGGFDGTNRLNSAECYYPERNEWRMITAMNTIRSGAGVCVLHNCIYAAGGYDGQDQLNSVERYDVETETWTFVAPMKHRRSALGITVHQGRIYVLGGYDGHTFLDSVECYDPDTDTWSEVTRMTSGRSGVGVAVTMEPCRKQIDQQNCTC", "assay": "Cellular thermal-shift assay, Keap1", "type": "binding", "conditions": "HCT116p53+/+ cell lysate; 100 µM", "experimental": "(§2) Cellular thermal-shift assay was performed as described previously. Briefly, HCT116^p53+/+ cells were collected, washed with PBS and diluted with cell lysis buffer (25 mM Tris-HCl (pH 7.5) and 10 mM MgCl2) supplemented with complete protease inhibitor cocktail. The cell suspension was frozen and thawed three times in liquid nitrogen. The soluble fraction was separated from debris by spinning down at 20,000g for 20 min. Cell lysate was then diluted with lysate buffer and divided into two aliquots—one treated with C1-27 (100 μM) and the other treated with 1% DMSO. After 30 min incubation at room temperature, the treated lysates were further divided into smaller aliquots (50 μl), which were then heated at different temperatures for 3 min on a Veriti thermal cycler (Applied Biosystems) followed by cooling for 3 min to room temperature. The heated lysates were centrifuged at 20,000g for 20 min at 4°C to separate the soluble fractions from precipitates. Supernatants were quantified and analysed by western blotting.\n(§3) Supplementary Fig. 11. Target engagement by C1-27. (a-c) CETSA melt curves for GSTO1 (a ), PDI (b ) and Keap1 (c) in HCT116p53+/+ cell lysate treated with C1-27 (100 µM). 1% DMSO was used as control.\n(§4) Data presented are mean ± SD of 3 independent experiments. A negative shift in the melting curves was […]"}, "NCIADR Res": {"tested_on": "NCIADR Res", "assay": "MTT cytotoxicity GI50, NCI-ADR/Res", "type": "cell-based", "conditions": "Homo sapiens, NCI/ADR-RES", "text": "Colon cancer cell line HCT116 was generously provided by Dr Bert Vogelstein, Johns Hopkins Medical Institutions, Baltimore, MD. Pancreatic cancer cell line Panc-1 was obtained from Dr Alan Epstein, University of Southern California. All other cell lines were purchased from the American Type Culture Collection (Manassas, VA). MDA-MB-435 cell line was used in the GSTO1 knockdown experiment as it had high GSTO1 expression (Supplementary Fig. 17). We also tested active compounds in NCI-ADR/Res cell line since GSTO1 is implicated in drug resistance. Cell lines were cultured in RPMI 1640 or […] supplemented with 10% fetal bovine serum at 37 °C in a humidified atmosphere of 5% CO2. All cell lines were maintained in culture under 30 passages and tested regularly for Mycoplasma contamination using PlasmoTest (InvivoGen, San Diego, CA, USA).\nas §1"}, "PDI [3]": {"biological_target": "T1, PDI", "assay": "Cellular thermal-shift assay, PDI", "type": "binding", "design": "endogenous in cells; host or cells: HCT116 p53+/+ cell lysate", "conditions": "HCT116p53+/+ cell lysate", "experimental": "as §2, with “Cell lysate was then diluted with lysate buffer and divided into two aliquots—one treated with C1-27 (100 μM) and the other treated with 1% DMSO.” left out\nas §3, §4\n(Below) Representative western blots showing soluble fractions of the target proteins following drug treatment and heating. […]"}, "HCT116 cells [4]": {"tested_on": "HCT116 cells", "assay": "Cell cycle analysis by flow cytometry", "type": "cell-based, human", "conditions": "5 μM, 24 h", "experimental": "Cells were seeded at a density of 0.5 × 10^6 per well in a six-well plate. After overnight attachment, cells were treated with C1-27 (5 μM) for 24 h and collected using trypsin. Cells were then washed twice with PBS containing 10% serum and fixed with 70% ethanol overnight at −20 °C. Fixed cells were washed twice in PBS containing 10% serum and stained with 50 μg ml^−1 propidium iodide solution containing 100 μg ml^−1 RNase A for 1 h at 37 °C. Cell cycle was analysed on a BD LSR II flow cytometer (BD Biosciences) and data were analysed using ModFit software."}}, "data": [{"smiles": "CN(C)S(=O)(=O)c1cc(NC(=O)CCl)ccc1Cl", "note": "[C1-27]", "values": [{"measurement": "tumour growth versus vehicle", "setting": "HCT116 xenografts; 20–45 mg kg^−1 i.p., 5 weeks", "result": "significantly inhibited"}, {"measurement": "dose generally well tolerated, no overt signs of toxicity", "setting": "HCT116 xenografts; i.p.", "result": "up to 45 mg kg^−1"}, {"measurement": "effect on cisplatin-induced cytotoxicity", "setting": "HCT116 cells [1]; combination with cisplatin, non-cytotoxic concentrations", "result": "significantly enhance"}, {"measurement": "clonogenic survival of HCT116 cells", "setting": "HCT116 cells [1]; sub-micromolar concentrations", "result": "inhibited"}, {"measurement": "GI50", "setting": "A549", "result": 11.7, "unit": "µM"}, {"measurement": "GI50", "setting": "HCT116", "result": "1.2 ± 0.6", "unit": "µM"}, {"measurement": "IC50", "setting": "PDI [2]", "result": "3.13 ± 0.52", "unit": "µM"}, {"measurement": "GI50", "setting": "BxPC3", "result": "5.5 ± 1", "unit": "µM"}, {"measurement": "CETSA thermal shift of Keap1", "setting": "Keap1", "result": "no shift"}, {"measurement": "GI50", "setting": "NCIADR Res", "result": 3.7, "unit": "µM"}, {"measurement": "CETSA thermal shift of PDI", "setting": "PDI [3]; 10 µM and 1 µM", "result": "no shift"}, {"measurement": "CETSA thermal shift of PDI", "setting": "PDI [3]; 100 µM", "result": "thermal shift"}, {"measurement": "S-phase population", "setting": "HCT116 cells [4]", "result": "increase"}]}]}
